From PubChem BioAssay (NCI)
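Briefly, cells in 96-well plates were exposed to five compound concentrations for 48 h, and endpoints were estimated by linear interpolation. GI50 = concentration required for 50% inhibition of growth. TGI: total growth inhibition.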

What was measured:
Assay in all cases: DTP human tumour cell line panel, 48 h
786-0 renal = tested on: 786-0 renal
A498 renal = tested on: A498 renal
A549 NSCLC = tested on: A549 NSCLC
ACHN renal = tested on: ACHN renal
BT-549 breast = tested on: BT-549 breast
CAKI-1 renal = tested on: CAKI-1 renal
CCRF-CEM leukemia = tested on: CCRF-CEM leukemia
COLO 205 colon = tested on: COLO 205 colon
DLD-1 colon = tested on: DLD-1 colon
DMS 114 small cell lung = tested on: DMS 114 small cell lung
DMS 273 small cell lung = tested on: DMS 273 small cell lung
DU-145 prostate = tested on: DU-145 prostate
EKVX NSCLC = tested on: EKVX NSCLC
HCC-2998 colon = tested on: HCC-2998 colon
HCT-116 colon = tested on: HCT-116 colon
HCT-15 colon = tested on: HCT-15 colon
HL-60(TB) leukemia = tested on: HL-60(TB) leukemia
HOP-18 NSCLC = tested on: HOP-18 NSCLC
HOP-62 NSCLC = tested on: HOP-62 NSCLC
HOP-92 NSCLC = tested on: HOP-92 NSCLC
HS 578T breast = tested on: HS 578T breast
HT29 colon = tested on: HT29 colon
IGROV1 ovarian = tested on: IGROV1 ovarian
K-562 leukemia = tested on: K-562 leukemia
KM12 colon = tested on: KM12 colon
KM20L2 colon = tested on: KM20L2 colon
LOX IMVI melanoma = tested on: LOX IMVI melanoma
LXFL 529 NSCLC = tested on: LXFL 529 NSCLC
M14 melanoma = tested on: M14 melanoma
MALME-3M melanoma = tested on: MALME-3M melanoma
MDA-MB-231 breast = tested on: MDA-MB-231 breast
MDA-MB-435 = tested on: MDA-MB-435
MDA-N = tested on: MDA-N
MOLT-4 leukemia = tested on: MOLT-4 leukemia
NCI-H226 lung = tested on: NCI-H226 lung
NCI-H23 lung = tested on: NCI-H23 lung
NCI-H460 lung = tested on: NCI-H460 lung
NCI-H522 lung = tested on: NCI-H522 lung
OVCAR-3 ovarian = tested on: OVCAR-3 ovarian
OVCAR-4 ovarian = tested on: OVCAR-4 ovarian
OVCAR-5 ovarian = tested on: OVCAR-5 ovarian
OVCAR-8 ovarian = tested on: OVCAR-8 ovarian
PC-3 prostate = tested on: PC-3 prostate
RPMI-8226 leukemia = tested on: RPMI-8226 leukemia
RXF 393 renal = tested on: RXF 393 renal
SF-268 CNS = tested on: SF-268 CNS
SF-295 CNS = tested on: SF-295 CNS
SF-539 CNS = tested on: SF-539 CNS
SK-MEL-2 melanoma = tested on: SK-MEL-2 melanoma
SK-MEL-28 melanoma = tested on: SK-MEL-28 melanoma
SK-MEL-5 melanoma = tested on: SK-MEL-5 melanoma
SK-OV-3 ovarian = tested on: SK-OV-3 ovarian
SN12C renal = tested on: SN12C renal
SNB-19 CNS = tested on: SNB-19 CNS
SNB-75 CNS = tested on: SNB-75 CNS
SNB-78 CNS = tested on: SNB-78 CNS
SR leukemia = tested on: SR leukemia
SW-620 colon = tested on: SW-620 colon
T-47D breast = tested on: T-47D breast
TK-10 renal = tested on: TK-10 renal
U251 CNS = tested on: U251 CNS
UACC-257 melanoma = tested on: UACC-257 melanoma
UACC-62 melanoma = tested on: UACC-62 melanoma
UO-31 renal = tested on: UO-31 renal
XF 498 CNS = tested on: XF 498 CNS
M19-MEL melanoma = tested on: M19-MEL melanoma

`COc1cccc2c1C(=O)c1c(O)c3c(c(O)c1C2=O)C[C@@](O)(C(=O)CO)C[C@@H]3OC1CC(N(C)C)C(O)C(C)O1` (some centres undefined) was tested, and the TGI (786-0 renal) was 1.51 µM, the TGI (A498 renal) was < 0.0195 µM and the TGI (A549 NSCLC) was 0.785 µM. It also gave a TGI (ACHN renal) of 0.0966 µM, a TGI (BT-549 breast) of 0.556 µM and a TGI (CAKI-1 renal) of 0.0733 µM. For the same molecule, the TGI (CCRF-CEM leukemia) was 7.59 µM, the TGI (COLO 205 colon) was 0.0186 µM and the TGI (DLD-1 colon) was 0.176 µM. For the same molecule, the TGI (DMS 114 small cell lung) was 0.204 µM, the TGI (DMS 273 small cell lung) was 0.158 µM and the TGI (DU-145 prostate) was 0.803 µM. For the same molecule, the TGI (EKVX NSCLC) was 0.413 µM, the TGI (HCC-2998 colon) was 0.258 µM and the TGI (HCT-116 colon) was 12.3 µM. It also gave a TGI (HCT-15 colon) of 0.765 µM, a TGI (HL-60(TB) leukemia) of 0.0206 µM and a TGI (HOP-18 NSCLC) of 2.95 µM. The TGI (HOP-62 NSCLC) was 0.272 µM, the TGI (HOP-92 NSCLC) was 0.312 µM and the TGI (HS 578T breast) was 0.0344 µM. The TGI (HT29 colon) was 1.82 µM, the TGI (IGROV1 ovarian) was 0.183 µM and the TGI (K-562 leukemia) was 9.41 µM. For the same molecule, the TGI (KM12 colon) was 0.338 µM, the TGI (KM20L2 colon) was 0.591 µM and the TGI (LOX IMVI melanoma) was 0.0102 µM. The TGI (LXFL 529 NSCLC) was 1.6 µM, the TGI (M14 melanoma) was 0.104 µM and the TGI (MALME-3M melanoma) was 0.0576 µM. The TGI (MDA-MB-231 breast) was 0.615 µM, the TGI (MDA-MB-435) was 0.165 µM and the TGI (MDA-N) was 0.0833 µM. The TGI (MOLT-4 leukemia) was 0.299 µM, the TGI (NCI-H226 lung) was 0.0814 µM and the TGI (NCI-H23 lung) was 0.0946 µM. The TGI (NCI-H460 lung) was 0.0167 µM, the TGI (NCI-H522 lung) was 0.0922 µM and the TGI (OVCAR-3 ovarian) was 0.858 µM. It also gave a TGI (OVCAR-4 ovarian) of 0.266 µM, a TGI (OVCAR-5 ovarian) of 0.352 µM and a TGI (OVCAR-8 ovarian) of 1.52 µM. The TGI (PC-3 prostate) was 0.102 µM, the TGI (RPMI-8226 leukemia) was 0.825 µM and the TGI (RXF 393 renal) was 0.0827 µM. The TGI (SF-268 CNS) was 0.36 µM, the TGI (SF-295 CNS) was 0.173 µM and the TGI (SF-539 CNS) was 0.121 µM. For the same molecule, the TGI (SK-MEL-2 melanoma) was 0.0885 µM, the TGI (SK-MEL-28 melanoma) was 0.168 µM and the TGI (SK-MEL-5 melanoma) was 0.0455 µM. It also gave a TGI (SK-OV-3 ovarian) of 1.76 µM, a TGI (SN12C renal) of 1.14 µM and a TGI (SNB-19 CNS) of 0.649 µM. For the same molecule, the TGI (SNB-75 CNS) was 0.138 µM, the TGI (SNB-78 CNS) was 0.645 µM and the TGI (SR leukemia) was 0.0188 µM. For the same molecule, the TGI (SW-620 colon) was 1.38 µM, the TGI (T-47D breast) was 0.0969 µM and the TGI (TK-10 renal) was 2.28 µM. It also gave a TGI (U251 CNS) of 2.75 µM, a TGI (UACC-257 melanoma) of 0.153 µM and a TGI (UACC-62 melanoma) of 0.0261 µM. For the same molecule, the TGI (UO-31 renal) was 0.427 µM and the TGI (XF 498 CNS) was 0.0553 µM.
`Cc1cc2c(cc1O)[nH]c1cc3c(cc12)C=CC(C)(C)O3` gave a GI50 (A549 NSCLC) of 6.42 µM, a TGI (A549 NSCLC) of 21.6 µM and a GI50 (ACHN renal) of 9.3 µM. For the same molecule, the TGI (ACHN renal) was > 25 µM, the GI50 (CCRF-CEM leukemia) was 19.8 µM and the TGI (CCRF-CEM leukemia) was > 25 µM. The TGI (COLO 205 colon) was > 25 µM, the GI50 (DLD-1 colon) was 12.7 µM and the TGI (DLD-1 colon) was > 25 µM. The TGI (DMS 114 small cell lung) was > 25 µM, the GI50 (DMS 273 small cell lung) was 5.04 µM and the TGI (DMS 273 small cell lung) was 12.2 µM. For the same molecule, the GI50 (HCC-2998 colon) was 6.73 µM, the TGI (HCC-2998 colon) was 14.5 µM and the GI50 (HCT-116 colon) was 12.8 µM. For the same molecule, the TGI (HCT-116 colon) was > 25 µM, the GI50 (HCT-15 colon) was 8.73 µM and the TGI (HCT-15 colon) was > 25 µM. The GI50 (HL-60(TB) leukemia) was 6.98 µM, the TGI (HL-60(TB) leukemia) was > 25 µM and the GI50 (HOP-62 NSCLC) was 7.95 µM. For the same molecule, the TGI (HOP-62 NSCLC) was 24.4 µM, the GI50 (HOP-92 NSCLC) was 9.85 µM and the TGI (HOP-92 NSCLC) was > 25 µM. The GI50 (HT29 colon) was 11.8 µM, the TGI (HT29 colon) was > 25 µM and the GI50 (IGROV1 ovarian) was 22.9 µM. For the same molecule, the TGI (IGROV1 ovarian) was > 25 µM, the TGI (K-562 leukemia) was > 25 µM and the GI50 (KM12 colon) was 5.26 µM. The TGI (KM12 colon) was 11.9 µM, the GI50 (KM20L2 colon) was 9.35 µM and the TGI (KM20L2 colon) was > 25 µM. For the same molecule, the GI50 (LOX IMVI melanoma) was 3.95 µM, the TGI (LOX IMVI melanoma) was 7.41 µM and the GI50 (LXFL 529 NSCLC) was 9.31 µM. The TGI (LXFL 529 NSCLC) was > 25 µM, the GI50 (M14 melanoma) was 6.07 µM and the TGI (M14 melanoma) was 16.9 µM. The GI50 (M19-MEL melanoma) was 19.6 µM, the TGI (M19-MEL melanoma) was > 25 µM and the GI50 (MALME-3M melanoma) was 10.1 µM. The TGI (MALME-3M melanoma) was > 25 µM, the GI50 (MOLT-4 leukemia) was 0.00323 µM and the TGI (MOLT-4 leukemia) was > 25 µM. The GI50 (NCI-H226 lung) was 18.9 µM, the TGI (NCI-H226 lung) was > 25 µM and the GI50 (NCI-H460 lung) was 5.36 µM. The TGI (NCI-H460 lung) was 12.4 µM, the GI50 (NCI-H522 lung) was 8.39 µM and the TGI (NCI-H522 lung) was > 25 µM. The TGI (OVCAR-3 ovarian) was 22.6 µM, the TGI (OVCAR-4 ovarian) was > 25 µM and the TGI (OVCAR-5 ovarian) was > 25 µM. The TGI (OVCAR-8 ovarian) was 9.41 µM, the TGI (RPMI-8226 leukemia) was > 25 µM and the GI50 (RXF 393 renal) was 4.93 µM. The TGI (RXF 393 renal) was 11.5 µM, the GI50 (SF-268 CNS) was 6.69 µM and the TGI (SF-268 CNS) was > 25 µM. For the same molecule, the GI50 (SF-539 CNS) was 4.08 µM, the TGI (SF-539 CNS) was 9.96 µM and the TGI (SK-MEL-2 melanoma) was > 25 µM. The GI50 (SK-MEL-28 melanoma) was 14.5 µM, the TGI (SK-MEL-28 melanoma) was > 25 µM and the GI50 (SK-MEL-5 melanoma) was 17.5 µM. For the same molecule, the TGI (SK-MEL-5 melanoma) was > 25 µM, the TGI (SK-OV-3 ovarian) was > 25 µM and the GI50 (SN12C renal) was 6.32 µM. For the same molecule, the TGI (SN12C renal) was 18.9 µM, the TGI (SNB-19 CNS) was > 25 µM and the TGI (SNB-78 CNS) was > 25 µM. For the same molecule, the GI50 (SR leukemia) was 6.39 µM, the TGI (SR leukemia) was 24.9 µM and the GI50 (SW-620 colon) was 7.64 µM. The TGI (SW-620 colon) was > 25 µM, the TGI (TK-10 renal) was > 25 µM and the GI50 (U251 CNS) was 6.06 µM. The TGI (U251 CNS) was 14.3 µM, the GI50 (UACC-62 melanoma) was 6.75 µM and the TGI (UACC-62 melanoma) was > 25 µM. For the same molecule, the GI50 (UO-31 renal) was 11.4 µM, the TGI (UO-31 renal) was > 25 µM and the TGI (XF 498 CNS) was > 25 µM.
